Data as given in US20050197350A1, “Novel quinoline, tetrahydroquinazoline, and pyrimidine derivatives and methods of treatment related to the use thereof” (TAISHO PHARMACEUTICAL CO., LTD., priority 2003, published 2005).

Tested on: MCH receptors
Assay: MCH receptor activity class (method not given)
Details: class 1-3 by percent of control at 10^-7 M or IC50

Row | SMILES | class
1 | CN(C)c1nc(NC2CCC(NC(=O)OCc3ccc([N+](=O)[O-])cc3)CC2)nc2c1CCCC2 (stereo not shown) [compound 492] | 3 (Class 3 The value of percent of control at 10^−7 M was more than 60% or the value of IC50 was more than 200 nM.)
2 | Cc1cc(C(=O)N[C@H]2CC[C@@H](Nc3nc4c(c(N(C)C)n3)CCCC4)CC2)ccc1Br [compound 493] | 2 (Class 2: The value of percent of control at 10^−7 M was from 40% to 60% or the value of IC′50 was from 50 nM to 200 nM.)
3 | CN(C)c1nc(N[C@H]2CC[C@@H](NC(=O)c3cccc(I)c3)CC2)nc2c1CCCC2 [compound 494] | 1 (Class 1: The value of percent of control at 10^−7 M was less than 40% or the value of IC50 was less than 50 nM.)
4 | CN(C)c1nc(N[C@H]2CC[C@@H](NC(=O)c3cccc(Cl)c3F)CC2)nc2c1CCCC2 [compound 495] | 3 (Class 3 The value of percent of control at 10^−7 M was more than 60% or the value of IC50 was more than 200 nM.)
5 | Cc1ccc(C(=O)N[C@H]2CC[C@@H](Nc3nc4c(c(N(C)C)n3)CCCC4)CC2)c(F)c1F [compound 496] | 3 (Class 3 The value of percent of control at 10^−7 M was more than 60% or the value of IC50 was more than 200 nM.)
6 | CN(C)c1nc(N[C@H]2CC[C@@H](NC(=O)c3ccc(F)cc3Cl)CC2)nc2c1CCCC2 [compound 497] | 2 (Class 2: The value of percent of control at 10^−7 M was from 40% to 60% or the value of IC′50 was from 50 nM to 200 nM.)
7 | CN(C)c1nc(N[C@H]2CC[C@@H](NC(=O)c3ccc(F)c(Cl)c3F)CC2)nc2c1CCCC2 [compound 498] | 3 (Class 3 The value of percent of control at 10^−7 M was more than 60% or the value of IC50 was more than 200 nM.)
8 | CN(C)c1nc(N[C@H]2CC[C@@H](NC(=O)CSc3ccccc3)CC2)nc2c1CCCC2 [compound 499] | 3 (Class 3 The value of percent of control at 10^−7 M was more than 60% or the value of IC50 was more than 200 nM.)
9 | CN(C)c1nc(N[C@H]2CC[C@@H](NC(=O)c3cccc(C(F)(F)F)c3F)CC2)nc2c1CCCC2 [compound 500] | 3 (Class 3 The value of percent of control at 10^−7 M was more than 60% or the value of IC50 was more than 200 nM.)
10 | CN(C)c1nc(N[C@H]2CC[C@@H](NC(=O)c3cc(C(F)(F)F)ccc3F)CC2)nc2c1CCCC2 [compound 501] | 3 (Class 3 The value of percent of control at 10^−7 M was more than 60% or the value of IC50 was more than 200 nM.)
11 | COc1cccc(CC(=O)N[C@H]2CC[C@@H](Nc3nc4c(c(N(C)C)n3)CCCC4)CC2)c1 [compound 503] | 2 (Class 2: The value of percent of control at 10^−7 M was from 40% to 60% or the value of IC′50 was from 50 nM to 200 nM.)
12 | CN(C)c1nc(N[C@H]2CC[C@@H](NC(=O)Cc3ccc(F)cc3)CC2)nc2c1CCCC2 [compound 504] | 1 (Class 1: The value of percent of control at 10^−7 M was less than 40% or the value of IC50 was less than 50 nM.)
13 | COc1ccc(CC(=O)N[C@H]2CC[C@@H](Nc3nc4c(c(N(C)C)n3)CCCC4)CC2)cc1 [compound 505] | 2 (Class 2: The value of percent of control at 10^−7 M was from 40% to 60% or the value of IC′50 was from 50 nM to 200 nM.)
14 | Cc1cc(C(=O)N[C@H]2CC[C@@H](Nc3nc4c(c(N(C)C)n3)CCCC4)CC2)c(C(F)(F)F)o1 [compound 506] | 2 (Class 2: The value of percent of control at 10^−7 M was from 40% to 60% or the value of IC′50 was from 50 nM to 200 nM.)
15 | Cc1cc(C(=O)N[C@H]2CC[C@@H](Nc3nc4c(c(N(C)C)n3)CCCC4)CC2)c(C)o1 [compound 507] | 1 (Class 1: The value of percent of control at 10^−7 M was less than 40% or the value of IC50 was less than 50 nM.)
16 | CCOc1ccccc1C(=O)N[C@H]1CC[C@@H](Nc2nc3c(c(N(C)C)n2)CCCC3)CC1 [compound 508] | 3 (Class 3 The value of percent of control at 10^−7 M was more than 60% or the value of IC50 was more than 200 nM.)
17 | CN(C)c1nc(N[C@H]2CC[C@@H](NC(=O)c3ccc(F)c(Cl)c3)CC2)nc2c1CCCC2 [compound 509] | 1 (Class 1: The value of percent of control at 10^−7 M was less than 40% or the value of IC50 was less than 50 nM.)
18 | Cc1ccc(C(=O)N[C@H]2CC[C@@H](Nc3nc4c(c(N(C)C)n3)CCCC4)CC2)cc1F [compound 510] | 2 (Class 2: The value of percent of control at 10^−7 M was from 40% to 60% or the value of IC′50 was from 50 nM to 200 nM.)
19 | CN(C)c1nc(N[C@H]2CC[C@@H](NC(=O)CC3CCCC3)CC2)nc2c1CCCC2 [compound 511] | 3 (Class 3 The value of percent of control at 10^−7 M was more than 60% or the value of IC50 was more than 200 nM.)
20 | COc1cc(OC)cc(C(=O)N[C@H]2CC[C@@H](Nc3nc4c(c(N(C)C)n3)CCCC4)CC2)c1 [compound 512] | 1 (Class 1: The value of percent of control at 10^−7 M was less than 40% or the value of IC50 was less than 50 nM.)

Row | SMILES | class
21 | CN(C)c1nc(N[C@H]2CC[C@@H](NC(=O)c3ccc(C#N)cc3)CC2)nc2c1CCCC2 [compound 513] | 3 (Class 3 The value of percent of control at 10^−7 M was more than 60% or the value of IC50 was more than 200 nM.)
22 | CN(C)c1nc(N[C@H]2CC[C@@H](NC(=O)c3cc(C(F)(F)F)cc(C(F)(F)F)c3)CC2)nc2c1CCCC2 [compound 514] | 1 (Class 1: The value of percent of control at 10^−7 M was less than 40% or the value of IC50 was less than 50 nM.)
23 | CN(C)c1nc(N[C@H]2CC[C@@H](NC(=O)/C=C/c3ccc([N+](=O)[O-])cc3)CC2)nc2c1CCCC2 [compound 515] | 3 (Class 3 The value of percent of control at 10^−7 M was more than 60% or the value of IC50 was more than 200 nM.)
24 | CN(C)c1nc(N[C@H]2CC[C@@H](NC(=O)Cc3ccccc3Br)CC2)nc2c1CCCC2 [compound 516] | 3 (Class 3 The value of percent of control at 10^−7 M was more than 60% or the value of IC50 was more than 200 nM.)
25 | Cc1cc(C(=O)N[C@H]2CC[C@@H](Nc3nc4c(c(N(C)C)n3)CCCC4)CC2)ccc1F [compound 517] | 1 (Class 1: The value of percent of control at 10^−7 M was less than 40% or the value of IC50 was less than 50 nM.)
26 | CN(C)c1nc(N[C@H]2CC[C@@H](NC(=O)c3ccccc3SC(F)F)CC2)nc2c1CCCC2 [compound 518] | 3 (Class 3 The value of percent of control at 10^−7 M was more than 60% or the value of IC50 was more than 200 nM.)
27 | CN(C)c1nc(N[C@H]2CC[C@@H](NC(=O)c3cc(Cl)sc3Cl)CC2)nc2c1CCCC2 [compound 519, 2,5-dichloro-N-(cis-4-{[4-(dimethylamino)-5,6,7,8-tetrahydroquinazolin-2-yl]amino}cyclohexyl)thiophene-3-carboxamide] | 1 (Class 1: The value of percent of control at 10^−7 M was less than 40% or the value of IC50 was less than 50 nM.)
28 | CCCSc1ncccc1C(=O)N[C@H]1CC[C@@H](Nc2nc3c(c(N(C)C)n2)CCCC3)CC1 [compound 520] | 2 (Class 2: The value of percent of control at 10^−7 M was from 40% to 60% or the value of IC′50 was from 50 nM to 200 nM.)
29 | CN(C)c1nc(N[C@H]2CC[C@@H](NC(=O)c3cc(C(C)(C)C)nn3Cc3ccccc3)CC2)nc2c1CCCC2 [compound 521] | 2 (Class 2: The value of percent of control at 10^−7 M was from 40% to 60% or the value of IC′50 was from 50 nM to 200 nM.)
30 | CN(C)c1nc(N[C@H]2CC[C@@H](NC(=O)c3cc(C(C)(C)C)nn3C)CC2)nc2c1CCCC2 [compound 522] | 3 (Class 3 The value of percent of control at 10^−7 M was more than 60% or the value of IC50 was more than 200 nM.)
31 | C/C(=C\c1ccccc1)C(=O)N[C@H]1CC[C@@H](Nc2nc3c(c(N(C)C)n2)CCCC3)CC1 [compound 523] | 3 (Class 3 The value of percent of control at 10^−7 M was more than 60% or the value of IC50 was more than 200 nM.)
32 | CN(C)c1nc(N[C@H]2CC[C@@H](NC(=O)c3cncc(Br)c3)CC2)nc2c1CCCC2 [compound 524, 5-bromo-N-(cis-4-{[4-(dimethylamino)-5,6,7,8-tetrahydroquinazolin-2-yl]amino}cyclohexyl)nicotinamide] | 1 (Class 1: The value of percent of control at 10^−7 M was less than 40% or the value of IC50 was less than 50 nM.)
33 | CN(C)c1nc(N[C@H]2CC[C@@H](NC(=O)Cc3cccc4ccccc34)CC2)nc2c1CCCC2 [compound 525] | 3 (Class 3 The value of percent of control at 10^−7 M was more than 60% or the value of IC50 was more than 200 nM.)
34 | Cc1cc(C(=O)N[C@H]2CC[C@@H](Nc3nc4c(c(N(C)C)n3)CCCC4)CC2)nn1C(C)(C)C [compound 526] | 3 (Class 3 The value of percent of control at 10^−7 M was more than 60% or the value of IC50 was more than 200 nM.)
35 | CN(C)c1nc(N[C@H]2CC[C@@H](NC(=O)c3csc4ccccc34)CC2)nc2c1CCCC2 [compound 527] | 3 (Class 3 The value of percent of control at 10^−7 M was more than 60% or the value of IC50 was more than 200 nM.)
36 | CN(C)c1nc(N[C@H]2CC[C@@H](NC(=O)c3ccccc3)CC2)nc2c1CCCC2 [compound 529, N-(cis-4-{[4-(dimethylamino)-5,6,7,8-tetrahydroquinazolin-2-yl]amino}cyclohexyl)benzamide] | 2 (Class 2: The value of percent of control at 10^−7 M was from 40% to 60% or the value of IC′50 was from 50 nM to 200 nM.)
37 | CN(C)c1nc(N[C@H]2CC[C@@H](NC(=O)c3cc4ccccc4s3)CC2)nc2c1CCCC2 [compound 530] | 3 (Class 3 The value of percent of control at 10^−7 M was more than 60% or the value of IC50 was more than 200 nM.)
38 | CN(C)c1nc(N[C@H]2CC[C@@H](NC(=O)COCc3ccccc3)CC2)nc2c1CCCC2 [compound 531, 2-(benzyloxy)-N-(cis-4-{[4-(dimethylamino)-5,6,7,8-tetrahydroquinazolin-2-yl]amino}cyclohexyl)acetamide] | 2 (Class 2: The value of percent of control at 10^−7 M was from 40% to 60% or the value of IC′50 was from 50 nM to 200 nM.)
39 | CN(C)c1nc(N[C@H]2CC[C@@H](NC(=O)COc3ccc(Cl)cc3)CC2)nc2c1CCCC2 [compound 532] | 2 (Class 2: The value of percent of control at 10^−7 M was from 40% to 60% or the value of IC′50 was from 50 nM to 200 nM.)
40 | CN(C)c1nc(N[C@H]2CC[C@@H](NC(=O)C3CCCCC3)CC2)nc2c1CCCC2 [compound 533] | 3 (Class 3 The value of percent of control at 10^−7 M was more than 60% or the value of IC50 was more than 200 nM.)
